Assay [1] is described as follows: Cytotoxicity against human KBv200 cells. Format: functional, cell-based.
The test system of assay [2] is HeLa. Put plainly: Cytotoxicity against human HeLa cells. Format: functional, cell-based.
Assay [3] relates to Aphis gossypii. The experiment in a line: Insecticidal activity against Aphis gossypii. Format: functional.
Assay [4] concerns HepG2. Put plainly: Cytotoxicity against human HepG2 cells. Format: functional, cell-based.
The subject of assay [5] is KB. Put plainly: Cytotoxicity against human KB cells. Format: functional, cell-based.
The subject of assay [6] is Uromyces viciae-fabae. The experiment in a line: […] activity against Uromyces fabae. Format: functional.
In assay [7] the test system is Plutella xylostella. The experiment in a line: Insecticidal activity against Plutella xylostella. Format: functional.
Assay [8] concerns Zymoseptoria tritici. The experiment in a line: […] activity against Septoria tritici. Format: functional.
Assay [9] has as its system Heliothis virescens. Put plainly: Insecticidal activity against Heliothis virescens. Format: functional.
For assay [10], the system named is HEp-2. The experiment in a line: Cytotoxicity against human Hep2 cells. Format: functional, cell-based.
Assay [11] can be described thus: Cytotoxicity against human 95-D cells. Format: functional, cell-based.

We go through 2 molecules from ChEMBL document CHEMBL1155505, “Penicinoline, a new pyrrolyl 4-quinolinone alkaloid with an unprecedented ring system from an endophytic fungus Penicillium sp” (Bioorg Med Chem Lett, 2010).

Each structure is given as a SMILES string. Values after ≈ are worked out from the molar mass of the structure shown.

For `O=C(O)c1c(-c2ccc[nH]2)[nH]c2ccccc2c1=O` [PENICINOLINE], the half-inhibitory concentration (IC50) in assay [1] was > 100 µg/mL; in assay [2] it was > 100 µg/mL; in [4] it was 6.5 µg/mL (≈ 25.6 µM); in assay [5], > 100 µg/mL; in [10] it was > 100 µg/mL; in assay [11], 0.57 µg/mL (≈ 2.24 µM). The min. effective conc. in assay [3] is 1000 ppm; in [6], > 1000 ppm; in assay [7], > 1000 ppm; in assay [8] it was > 1000 ppm; in [9] it was > 1000 ppm.
For the molecule `Cn1c2c(c(=O)c3ccccc31)C(=O)n1cccc1-2` [PENICINOTAM], the min. effective conc. in [3] was 1000 ppm; in [6], > 1000 ppm; in assay [7] it was 500 ppm; in assay [8] it was > 1000 ppm; in assay [9] it was > 1000 ppm.

The term IC50 denotes the concentration needed to halve the response being measured. Low readings indicate greater potency, high ones weaker potency.
